Results: patent US12438175B2, “Aqueous organic-based electrolyte for redox flow battery” (KEMIWATT, priority 2019, dated 2025)
Values after ≈ are worked out from the molar mass of the structure shown. Structures can show the parent of a compound that is named as a salt. Blank lines part the entries; values can stand above or below the compound they belong to.

Columns and labels:
[1] = Cycling tests of redox flow battery cells in constant power cycling mode
[2] = comparative redox active material in negolytes; cited from earlier work
[3] = Cyclic voltammetry / linear sweep voltammetry, electrochemical parameters; format: physicochemical; settings: for Peak-to-peak separation ΔEp: 100 mV/s, third cycle; for E^0′ apparent standard redox potential / E1/2 half-wave potential: 5 mM, pH 14, 1 M KOH; for E1/2 half-wave potential: RDE; for k^0′O × 10^−2 apparent heterogeneous rate constant: Gileadi's equation; for DO × 10^−6 diffusion coefficient: Randles-Sevcik
Experimental: Cyclic voltammetry experiments were performed at a 100 mV/s scan rate for compounds M3CH, D3CH, D4CH, M3SH, D3SH, M4SH and D4SH in solution at pH 13 (KOH 0.1 M) or pH 14 (KOH 1 M).
The electrochemical experiments were conducted on an electrochemical working station (BioLogic Science Instruments VSP) at 25° C. using a three-electrodes electrochemical cell, where a Pt wire was employed at the counter electrode (CE), an Ag/AgCl/KCl saturated electrode immerged in a 1 M KOH solution protected from the cell by a porous frit glass served as the reference electrode (RE) and a rotating disc electrode (RDE) mounted with a glassy carbon (GC, 7.069 mm^2) disk was used as the working electrode (WE), respectively. The potential was reported relative to the normal hydrogen electrode (NHE), which was converted from the Ag/AgCl reference electrode (0.230 V versus NHE). The ohmic drop between the WE and RE is determined by current interrupt experiments and leads to a value close to 0.7069 Ω·cm^2. All cyclic voltammetry experiments were conducted by alleviating most of this resistance (85%) using the potentiostat manual ohmic drop compensation. Before each electrochemical measurement, the GC disk electrode was polished using SiC P4000 foil.
Each recorded cyclic voltammetry of the reduction and the oxidation process of a compound at a given scan rate is analyzed by measuring ip,a=anodic peak current; ip,c=cathodic peak current; v=scan rate; Ep,a=anodic peak potential; Ep,c=cathodic peak potential; ΔEp=Ep,a−Ep,c; the apparent standard redox potential E^0′=[…].
Linear sweep voltammetry (LSV) using the RDE at various rotation speed (400 up to 1 000 RPM) were performed to determine the averaged half-wave potential E1/2.
The oxidation (DO) and the reduction (DR) diffusion coefficients were calculated using Randles-Sevcik (RS) equation ip=0.4463·n^3/2·F^3/2·A·C·v^1/2·D^1/2·R^−1/2·T^−1/2=Cye·v^1/2·D^1/2, n=number of electrons exchanged during the redox process; F=faradaic number=96485 C·mol^−1; A=electrode active surface; C=redox active molecule concentration; R=gas constant=8.314 J·K^−1·mol^−1; T=bulk temperature=299 K. The experiments are conducted by cyclic voltammetry at various scan rates ranging from 10 mV/s up to 20 V/s.
A graphic of lip,al and lip,cl=f(Cte×v^1/2) is plotted, if the redox process is reversible and diffusion controlled, the peak current should be proportional to the square root of the scan rate. The diffusion coefficients (oxidation and reduction) are then calculated by taking the square of the regression lines slopes. Diffusion coefficients (oxidation and reduction processes) are evaluated by plotting the peak current versus a constant multiplied by the square root of the scan rate. The plots regression line gives a straight line with perfect correlation coefficient (100%) confirming that the redox process is reversible and diffusion controlled. The square of each slope gives the associated coefficient diffusion in cm^2 s^−1.
The apparent heterogeneous rate constant during oxidation (k^0′O)/and reduction (k^0′R) process was calculated using Gileadi's equation (C. Rüssel, W. Jaenicke, Electrochimica Acta, Vol 27, N° 12, 1745-1750, 1982) log k^0′=−0.48α+0.52 +log[(nFαvcD)/(2.303RT)]^1/2; vc is the critical scan rate, it is calculated by plotting the peak potentials versus the logarithm of the scan rates, and is more precise when a very wide range of scan rates is used, which is the case here (0.010 up to 20 V·s^−1), it is determined at the x-axis of the point of intersection of the regression lines drawn at low and high scan rates; a is the transfer coefficient that is supposed to be close to 0.5 for all presented compounds.
Peak-to-peak separation ΔEp values were determined from the third cycle of each cyclic voltammogram (FIGS. 1 and 2) and are gathered in the following table 4.
The standard redox process reversibility evaluation is performed in diluted state, at 5 mM of concentration, at pH 14 buffered with 1 M of KOH. […]

[4] = format: physicochemical; settings: pH 13.5
Experimental: (§1) Post-cycling analyses were carried out using ^1H NMR spectroscopy electrolytes. […] Taking into account the electrolyte-membrane contact time during this cycling test and the NMR spectroscopy resolution, the permeability coefficient of compound D4CH can be estimated below 10^−12 cm^2/s or less than 1% capacity loss per year of electrolyte-membrane contact.
as §1, with “M4SH” for “D4CH”

[5] = Cycling tests of redox flow battery cells in galvanostatic mode; settings: Test 1: 0.5 M M3CH, pH 13.0
[6] = Degradation study by 1H NMR of electrolyte heated at 40° C.; format: physicochemical
Experimental: This study consists of NMR ^1H measurements of an electrolyte heated at 40° C. and kept under stirring at 300 RPM using a magnetic stirrer.
Such behavior was detailed in the literature (WO 2019/157437) and is characteristic of a nucleophilic attack i.e. of OH^− in strong alkaline environment causing the functionalized arm to be cleaved.

[7] = Solubility in aqueous solution at various pH by shake-flask method; settings: thermodynamic from solid
[8] = 0.3 M AQ-2,7-DS, pH 13.0, Battery no 3, 60 mL, flowrate 0.5 mL/min/cm^2
[9] = 0.3 M AQ-2,7-DS, pH 13.0, Battery no 3, 60 mL, flowrate 5 mL/min/cm^2
[10] = 0.3 M AQ-2,7-DS, pH 13.0, Battery no 4, 120 mL, flowrate 0.5 mL/min/cm^2
[11] = 0.3 M AQ-2,7-DS, pH 13.0, Battery no 4, 120 mL, flowrate 5 mL/min/cm^2
[12] = extrapolated from 5 days, flowrate 0.5 mL/min/cm^2, negolyte 120/120/40/370 mL
[13] = aqueous H2SO4 1M solution, pH 0, aqueous buffer
[14] = aqueous KOH 1M solution, pH 14, aqueous buffer

Structure (SMILES): O=C1c2ccc(S(=O)(=O)O)cc2C(=O)c2cc(S(=O)(=O)O)ccc21 [AQ-2,7-DS, Anthraquinone-2,7-disulfonic acid disodium salt]
Stability in cycles (−20%) [1, 8]: 563 cycles
Stability in days (−20%) [1, 8]: 27.1 days
Stability in cycles (−20%) [1, 9]: 378 cycles
Stability in days (−20%) [1, 9]: 21.1 days
Stability in cycles (−20%) [1, 10]: 0 cycles
Stability in days (−20%) [1, 10]: 0.0 days
Stability in cycles (−20%) [1, 11]: 173 cycles
Stability in days (−20%) [1, 11]: 19.6 days
behaviour after decreasing the flowrate down to 0.5 mL/min/cm^2 ([1]; constraints close to real systems, 0.3 M, pH 13.0): precipitates directly
Stability in cycles (−20%) [1, 12]: 0 cycles
Stability in days (−20%) [1, 12]: 0.0 days
DO × 10^−6 [2]: 3.8 × 10^−6 cm^2/s
k^0′O × 10^−2 [2]: 0.72 × 10^−2 cm/s

Structure (SMILES): C[N+](C)(C)CCC[n+]1ccc(-c2cc[n+](CCC[N+](C)(C)C)cc2)cc1.[Cl-].[Cl-].[Cl-].[Cl-] [BTMAP-Vi]
DO × 10^−6 [2]: 3.3 × 10^−6 cm^2/s
k^0′O × 10^−2 [2]: 2.2 × 10^−2 cm/s

Structure (SMILES): O=C(O)CCCOc1ccc(OCCCC(=O)O)c2c1C(=O)c1ccccc1C2=O [Compound D3CH]
Peak-to-peak separation ΔEp ([3]; pH 13 (KOH 0.1 M)): 267 mV
Peak-to-peak separation ΔEp ([3]; pH 14 (KOH 1 M)): 46 mV
Solubility, solution at pH 0 (H2SO4 1M): 0.30 M
Solubility, solution at pH 14 (KOH 1M): 0.42 M

Structure (SMILES): O=C1c2ccccc2C(=O)c2c(OCCCS(=O)(=O)O)ccc(OCCCS(=O)(=O)O)c21 [Compound D3SH]
Peak-to-peak separation ΔEp ([3]; pH 13 (KOH 0.1 M)): 246 mV
Peak-to-peak separation ΔEp ([3]; pH 14 (KOH 1 M)): 40 mV
Solubility, solution at pH 0 (H2SO4 1M): 0.73 M
Solubility, solution at pH 14 (KOH 1M): 0.92 M

Structure (SMILES): O=C(O)CCCCOc1ccc(OCCCCC(=O)O)c2c1C(=O)c1ccccc1C2=O [Compound D4CH]
Peak-to-peak separation ΔEp ([3]; pH 13 (KOH 0.1 M)): 328 mV
Peak-to-peak separation ΔEp ([3]; pH 14 (KOH 1 M)): 32 mV
compound degradation in negolyte after cycling [4]: No traces of compound D4CH degradation were visible
Solubility, solution at pH 0 (H2SO4 1M): 0.00 M
Solubility, solution at pH 14 (KOH 1M): 0.46 M

Structure (SMILES): O=C1c2ccccc2C(=O)c2c(OCCCCS(=O)(=O)O)ccc(OCCCCS(=O)(=O)O)c21 [Compound D4SH]
Peak-to-peak separation ΔEp ([3]; pH 13 (KOH 0.1 M)): 390 mV
Peak-to-peak separation ΔEp ([3]; pH 14 (KOH 1 M)): 32 mV
Solubility, solution at pH 0 (H2SO4 1M): 0.91 M
Solubility, solution at pH 14 (KOH 1M): 0.78 M

E^0′ apparent standard redox potential [3]: −0.484 V vs NHE
E1/2 half-wave potential [3]: −0.484 V vs NHE
k^0′O × 10^−2 apparent heterogeneous rate constant [3]: 2.3 × 10^−2 cm/s
DO × 10^−6 diffusion coefficient [3]: 5.2 × 10^−6 cm^2/s
Peak-to-peak separation ΔEp ([3]; pH 13 (KOH 0.1 M)): 140 mV
Peak-to-peak separation ΔEp ([3]; pH 14 (KOH 1 M)): 31 mV
solubility over state-of-charge [5]: soluble at every state-of-charge
degradation rate ([6]; 0.05 M, pH 13.9, 40° C.): roughly 15 % per month
degradation after a month ([6]; 0.4 M, pH 13.5, 0.8 M KOH, 0.3 M NaOH, 40° C.): did not undergo any degradation
solubility [7, 13]: 310 mM (≈ 101 mg/mL)
solubility [7, 14]: 530 mM (≈ 173 mg/mL)
Stability in cycles (−20%) [1, 12]: 28449 cycles
Stability in days (−20%) [1, 12]: 10942.1 days
Structure (SMILES): O=C(O)CCCOc1ccc(O)c2c1C(=O)c1ccccc1C2=O [Compound M3CH]

Structure (SMILES): O=C1c2ccccc2C(=O)c2c(OCCCS(=O)(=O)O)ccc(O)c21 [Compound M3SH]
E^0′ apparent standard redox potential [3]: −0.489 V vs NHE
E1/2 half-wave potential [3]: −0.489 V vs NHE
k^0′O × 10^−2 apparent heterogeneous rate constant [3]: 3.1 × 10^−2 cm/s
DO × 10^−6 diffusion coefficient [3]: 4.6 × 10^−6 cm^2/s
Peak-to-peak separation ΔEp ([3]; pH 13 (KOH 0.1 M)): 97 mV
Peak-to-peak separation ΔEp ([3]; pH 14 (KOH 1 M)): 40 mV
Solubility, solution at pH 0 (H2SO4 1M): 0.31 M
Solubility, solution at pH 14 (KOH 1M): 0.23 M

Structure (SMILES): O=C1c2ccccc2C(=O)c2c(OCCCS(=O)(=O)O)ccc(O)c21 [Compound M3SNa]
solubility [7, 13]: 460 mM (≈ 167 mg/mL)
solubility ([7]; unbuffered aqueous KCl 1M solution, saline or isotonic): 320 mM (≈ 116 mg/mL)

Structure (SMILES): O=C1c2ccccc2C(=O)c2c(OCCCCS(=O)(=O)O)ccc(O)c21 [Compound M4SH]
E^0′ apparent standard redox potential [3]: −0.494 V vs NHE
E1/2 half-wave potential [3]: −0.494 V vs NHE
k^0′O × 10^−2 apparent heterogeneous rate constant [3]: 3.1 × 10^−2 cm/s
DO × 10^−6 diffusion coefficient [3]: 5.8 × 10^−6 cm^2/s
Peak-to-peak separation ΔEp ([3]; pH 13 (KOH 0.1 M)): 97 mV
Peak-to-peak separation ΔEp ([3]; pH 14 (KOH 1 M)): 39 mV
compound degradation in negolyte after cycling [4]: no traces of compound M4SH degradation were visible
Solubility, solution at pH 14 (KOH 1M): 0.46 M

Structure (SMILES): O=C(O)CCCOc1ccc2c(c1)C(=O)c1ccc(OCCCC(=O)O)cc1C2=O [DBEAQ]
DO × 10^−6 [2]: 1.58 × 10^−6 cm^2/s
k^0′O × 10^−2 [2]: 0.70 × 10^−2 cm/s

Structure (SMILES): O=C1c2ccc(O)cc2C(=O)c2ccc(O)cc21 [DHAQ]
DO × 10^−6 [2]: 4.8 × 10^−6 cm^2/s
k^0′O × 10^−2 [2]: 0.70 × 10^−2 cm/s

Structure (SMILES): O=C1C=C(O)C(=O)C=C1O [DHBQ]
DO × 10^−6 [2]: 3.66 × 10^−6 cm^2/s
k^0′O × 10^−2 [2]: 0.21 × 10^−2 cm/s

Structure (SMILES): O=C1c2ccc(OCCCP(=O)(O)O)cc2C(=O)c2ccc(OCCCP(=O)(O)O)cc21 [DPPEAQ]
DO × 10^−6 [2]: 1.37 × 10^−6 cm^2/s

Structure (SMILES): Cc1cc2nc3c(=O)[nH]c(=O)nc-3n(C[C@H](O)[C@H](O)[C@H](O)COP(=O)([O-])O)c2cc1C.[Na+] [Flavine FMN-Na]
DO × 10^−6 [2]: 1.3 × 10^−6 cm^2/s
k^0′O × 10^−2 [2]: 0.53 × 10^−2 cm/s

solubility [7, 14]: < 50 mM
Structure (SMILES): O=C1c2ccccc2C(=O)c2c(O)ccc(O)c21 [Quinizarin, quinizarin]
